Series [1] relates to cleaved caspase-3. The series can be described thus: Immunohistochemistry of SK-N-BE(2) xenografts, apoptotic marker. The class given is in vivo, mice. The settings on record: different dosages of Abraxane; Taxol 20 mg/kg/weekly; end of study.
Series [2] deals with RH4 xenograft. The series can be described thus: RH4 rhabdomyosarcoma subcutaneous xenograft model. The settings on record: for local relapse-free interval: RH4 model.
Protocol: Briefly, tumor cells were washed three times with HBSS before injection. Mice were given a subcutaneous injection of 1×10^6 tumor cells. Tumor growth was measured weekly in two dimensions using a digital caliper, and tumor volume was calculated as width^2×length×0.5. Once the tumor diameter reached 0.5 cm, mice were randomized into treatment groups with 10 animals in each group. […] Taxol® was administered i.v. at 20 or 30 mg/kg weekly. Control mice received saline. Tumor volume, mouse body weight and signs of animal distress were evaluated twice or three times a week for any potential drug toxicity. Animals were sacrificed once the tumor size reached 1.5 cm^3.
Tumor volume was measured and calculated as width^2×length×0.5. […] Drugs were given on day 52, 59 and 66 with the same schedule and dosage as above. Tumor growth was monitored.
For series [3], the system named is relapsed RH4 xenografts. The series can be described thus: Relapsed RH4 xenograft model, re-treatment. The settings on record: re-treatment on day 52, 59 and 66, Taxol 30 mg/kg or Abraxane 50 mg/kg. It is filed as in vivo, mice. An excerpt:
Tumor growth was monitored.

Series [4] has as its system RD xenograft. The series can be described thus: RD rhabdomyosarcoma xenograft model. It is filed as in vivo, mice. The settings on record: Taxol 30 mg/kg weekly, Abraxane 50 mg/kg weekly. Here is the method: Control mice received saline.
Tumor growth was assessed in RD xenograft model with paclitaxel/Abraxane treatment. In Abraxane treatment group, tumor-bearing mice received Abraxane (50 mg/kg, weekly) treatment. In paclitaxel treatment group, since tumor sizes are reaching the endpoint after 2-week paclitaxel treatment in paclitaxel group, those mice were randomized into two groups with 5 animals in each group on day 15: one group of animals continued receiving 30 mg/kg of paclitaxel and the other group received 50 mg/kg of Abraxane instead.

Series [5] has as its system phospho-histone H3. The series can be described thus: Immunohistochemistry of SK-N-BE(2) xenografts, mitotic marker. The settings on record: different dosages of Abraxane; Taxol 20 mg/kg/weekly; end of study. It is filed as in vivo, mice.
The subject of series [6] is phospho-histone H3. The series can be described thus: Immunohistochemistry of RH4 xenografts, mitotic marker. The settings on record: 48 hours after Abraxane 50 mg/kg iv or Taxol 30 mg/kg iv. It is filed as in vivo, mice. An excerpt: Similarly, RH4 xenografts were harvested and analyzed by IHC for phosphor-histone H3.
Series [7] deals with A673 Ewing's sarcoma cells. The series can be described thus: A673 Ewing sarcoma subcutaneous xenograft. The class given is in vivo, mice. The settings on record: gemcitabine 100 mg/kg i.p. twice weekly with nab-paclitaxel. Here is the method:
(§1) Briefly, 5×10^6143.98.2 osteosarcoma cells or A673 Ewing's sarcoma cells were suspended in 100 μl PBS and implanted subcutaneously with 33% Matrigel in 5-6 week-old female athymic nu/nu mice. Tumor volume was calculated using the formula L·W2·(π/6), where L=the longest tumor diameter and W=the widest tumor diameter perpendicular to L. When tumors reached 200-300 mm^3, animals were treated with either saline control, nab-paclitaxel 30 mg/kg intravenously on days 1-5 for a single course, gemcitabine 100 mg/kg intraperitoneally twice weekly until death, or the combination of nab-paclitaxel and gemcitabine. Mice were sacrificed once tumors reached 10% body weight (˜2500 mm^3).
(§2) To perform statistical analysis, it was calculated that a sample of 10 mice per group would provide an 80% power to detect a difference in tumor size of 41%, Power was calculated at a significance level of 0.05 using a two-tailed, two sample Student's t-test assuming equal variance. GraphPad Prism 5 software was used to analyze survival by log-rank and tumor growth by two sample Student's t-test.

In series [8] the test system is 143.98.2 osteosarcoma cells. The class given is in vivo. The settings on record: nab-paclitaxel 30 mg/kg i.v. days 1-5; gemcitabine 100 mg/kg i.p. twice weekly; p=0.031 combination vs nab-paclitaxel alone. Here is the method: as §1, §2
Where [9] appears, read: dosing on days 1, 8 and 15, Taxol 30 mg/kg, Abraxane 50 mg/kg.

Entries after “also recorded” stand apart in the source; their conditions may differ.

On to `CC(=O)O[C@H]1C(=O)[C@@]2(C)[C@H]([C@H](OC(=O)c3ccccc3)[C@]3(O)C[C@H](OC(=O)[C@H](O)[C@@H](NC(=O)c4ccccc4)c4ccccc4)C(C)=C1C3(C)C)[C@]1(OC(C)=O)CO[C@@H]1C[C@@H]2O` [Taxol®, paclitaxel], for which the “apoptotic cell population (cleaved caspase-3 staining)” value in series [1] is listed as “only slightly increased apoptosis in tumors”. Also, the “animals that developed relapsed tumors” value in series [2] (7 animals per group) is given as “all Taxol® treated animals demonstrated tumor relapse”. Further, the “tumor growth (tumor volume)” value is “significantly inhibited RH4 tumor growth, with tumor regression observed after the 2nd dosage on day 8” in series [2] (Abraxane 50 mg/kg, Taxol 30 mg/kg i.v. weekly) and “slow the growth of RD tumors, but those tumors grew progressively with no signs of tumor regression; also recorded: significantly inhibited tumor growth” in series [4]. The local relapse-free interval in series [2] turned out to be 13.6 ± 2.07 days; in series [2] (listed as paclitaxel), 34 days. Also, in series [2] (Taxol 30 mg/kg group, Day 10), the mice that died is given as 1 out of 7. The “complete regression observed after day” value in series [2] (setting [9]) was > 31 days. Moreover, the “time to tumor relapse after complete regression” value in series [2] (setting [9]) was 11 to 15 days. Moreover, the figures for the “response of tumors relapsed after Taxol (paclitaxel) treatment” value in series [3] and in series [3] (listed as paclitaxel) were “drug resistant against Taxol®” and “paclitaxel-resistant”, respectively. In addition, the “phospho-histone H3 positive cells” value in series [5] is given as “only slightly increased phospho-histone H3 positive cells”; in series [6] it was “Significant increased population of phospho-histone H3 positive cells”.

Take `Nc1ccn([C@@H]2O[C@H](CO)[C@@H](O)C2(F)F)c(=O)n1` [gemcitabine]: in series [7], the “additive benefit of gemcitabine added to nab-paclitaxel” value is given as “no additive benefit”. The tumor growth result in series [8] is listed as “appeared additive”.

(Values after US20160015817A1, “METHODS OF TREATMENT OF PEDIATRIC SOLID TUMOR” (priority 2013, published 2016).)
